The source of these data is US10266497B2 (ABIDE THERAPEUTICS, INC., priority 2017, dated 2019).

Usually IC50 stands for the concentration needed to halve the response being measured. A low value points to inhibition by little substance.

The target of assay [1] is T1, FAAH (Mus musculus, UniProt O08914).
T1 sequence (O08914 1-579): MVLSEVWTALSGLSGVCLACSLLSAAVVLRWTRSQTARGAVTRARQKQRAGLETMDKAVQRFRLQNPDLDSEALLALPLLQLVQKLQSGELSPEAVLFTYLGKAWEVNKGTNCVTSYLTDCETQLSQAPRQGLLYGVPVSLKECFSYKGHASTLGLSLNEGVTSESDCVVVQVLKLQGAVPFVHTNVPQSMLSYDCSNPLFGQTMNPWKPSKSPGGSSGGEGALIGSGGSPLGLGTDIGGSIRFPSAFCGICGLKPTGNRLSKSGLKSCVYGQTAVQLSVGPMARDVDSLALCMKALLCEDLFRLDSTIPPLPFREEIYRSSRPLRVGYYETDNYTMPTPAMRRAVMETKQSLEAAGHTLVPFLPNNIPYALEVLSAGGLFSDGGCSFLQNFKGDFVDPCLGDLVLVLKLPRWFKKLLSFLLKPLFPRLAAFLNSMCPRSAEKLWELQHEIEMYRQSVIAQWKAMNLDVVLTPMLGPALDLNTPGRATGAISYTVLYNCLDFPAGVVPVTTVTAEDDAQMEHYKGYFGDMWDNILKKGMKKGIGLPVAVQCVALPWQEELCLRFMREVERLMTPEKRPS
Briefly: Mouse brain proteomes from inhibitor treated mice (oral gavage, sacrificed 4 h after administration), FAAH. The class given is in vivo. More on the design: mouse brain membrane fraction for mouse assays; from tissue; host or cells: mouse brain (membrane fraction in vitro; brain proteomes of treated C57Bl/6J mice in vivo). As to conditions: 5 mg/kg oral gavage, brain proteome 4 h after administration, read-out: FAAH % inh. 5 mg/kg (mouse).

The target of assay [2] is T1, FAAH. The assay can be described thus: In vitro competitive activity-based protein profiling, FAAH, mouse. The conditions noted are these: read-out: FAAH % inh. 1 μM (mouse).
The target in assay [3] is T2, MAGL (Mus musculus, UniProt O35678).
T2 sequence (O35678 1-303): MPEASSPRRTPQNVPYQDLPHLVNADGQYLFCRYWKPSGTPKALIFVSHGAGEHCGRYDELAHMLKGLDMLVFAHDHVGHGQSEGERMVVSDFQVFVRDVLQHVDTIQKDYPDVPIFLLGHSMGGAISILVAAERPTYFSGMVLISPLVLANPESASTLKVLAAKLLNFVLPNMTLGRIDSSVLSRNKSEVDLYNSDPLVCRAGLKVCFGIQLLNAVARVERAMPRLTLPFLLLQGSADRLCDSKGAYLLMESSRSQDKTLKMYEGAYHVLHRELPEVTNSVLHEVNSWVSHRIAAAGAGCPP
The assay can be described thus: In vitro competitive activity-based protein profiling, MAGL, mouse. The conditions noted are these: read-out: MAGL % inh. 1 μM (mouse).

Assay [4] addresses T2, MAGL. The assay can be described thus: Mouse brain proteomes from inhibitor treated mice (oral gavage, sacrificed 4 h after administration). It counts as in vivo. Set-up: mouse brain membrane fraction for mouse assays; from tissue; host or cells: mouse brain (membrane fraction in vitro; brain proteomes of treated C57Bl/6J mice in vivo). As to conditions: 5 mg/kg oral gavage, brain proteome 4 h after administration, read-out: MAGL % inh. 5 mg/kg (mouse).

Assay [5] has as its target T3, FAAH (Homo sapiens, UniProt O00519).
T3 sequence (O00519 1-579): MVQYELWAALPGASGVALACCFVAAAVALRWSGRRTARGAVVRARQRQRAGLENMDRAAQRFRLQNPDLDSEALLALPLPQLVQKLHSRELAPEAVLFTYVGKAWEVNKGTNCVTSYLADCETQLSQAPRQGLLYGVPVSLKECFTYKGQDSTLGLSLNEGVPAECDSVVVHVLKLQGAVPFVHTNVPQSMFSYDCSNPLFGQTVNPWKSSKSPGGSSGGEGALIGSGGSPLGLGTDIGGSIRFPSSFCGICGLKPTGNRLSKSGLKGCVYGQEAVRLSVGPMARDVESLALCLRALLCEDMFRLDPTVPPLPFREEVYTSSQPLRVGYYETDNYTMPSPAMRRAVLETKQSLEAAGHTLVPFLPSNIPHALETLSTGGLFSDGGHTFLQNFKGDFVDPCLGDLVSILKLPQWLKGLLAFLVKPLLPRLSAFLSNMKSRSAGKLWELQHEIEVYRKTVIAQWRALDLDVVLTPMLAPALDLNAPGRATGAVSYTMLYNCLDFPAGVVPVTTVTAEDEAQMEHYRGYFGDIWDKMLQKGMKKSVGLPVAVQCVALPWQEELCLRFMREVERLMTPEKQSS
Briefly: In vitro competitive activity-based protein profiling, FAAH, human. As to conditions: for inhibition at 1 µM: read-out: FAAH % inh. 1 μM (human).
Procedure: Biological Evaluation In Vitro Competitive Activity-Based Protein Profiling.
Proteomes (mouse brain membrane fraction for mouse assays; human prefrontal cortex membrane fractions for human assays) (50 mL, 1.0 mg/mL total protein concentration) were preincubated with varying concentrations of inhibitors at 37° C. After 30 min, FP-Rh (1.0 mL, 50 mM in DMSO) was added and the mixture was incubated for another 30 min at 37° C. Reactions were quenched with SDS loading buffer (15 μL—4λ) and run on SDS-PAGE.

Assay [6] has as its target T4, MAGL (Homo sapiens, UniProt Q99685).
T4 sequence (Q99685 1-303): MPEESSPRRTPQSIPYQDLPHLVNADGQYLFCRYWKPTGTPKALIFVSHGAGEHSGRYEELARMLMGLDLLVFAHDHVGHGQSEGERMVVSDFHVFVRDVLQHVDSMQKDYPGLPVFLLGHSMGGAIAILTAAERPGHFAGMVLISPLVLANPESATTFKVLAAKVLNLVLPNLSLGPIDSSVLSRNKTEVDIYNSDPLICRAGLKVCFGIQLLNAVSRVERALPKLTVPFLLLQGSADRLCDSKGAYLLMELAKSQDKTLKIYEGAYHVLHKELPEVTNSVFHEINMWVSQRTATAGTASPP
The assay can be described thus: In vitro competitive activity-based protein profiling, MAGL, human. The conditions noted are these: for inhibition at 1 µM: read-out: MAGL % inh. 1 μM (human).

For `Cc1c(CO[C@H]2C[C@@H]3CN(C(=O)n4ccc(C(=O)O)n4)C[C@@H]3C2)cccc1C(F)(F)F` [Example 159, 1-(trans-5-((2-methyl-3-(trifluoromethyl)benzyl)oxy)octa-hydrocyclopenta[c]pyrrole-2-carbonyl)-1H-pyrazole-3-carboxylic acid], the inhibition at 5 mg/kg in assay [1] and in assay [4] was 0 to 25% in each case. In addition, the inhibition at 1 µM in assay [2], in assay [3], in assay [5] and in assay [6] was more than 75% each time. The compound also came in with an IC50 in assay [5] of 100 to 1000 nM.

Take `O=C(O)c1ccn(C(=O)N2CCN(Cc3cccc(Oc4cc(C(F)(F)F)ccn4)c3)CC2)n1` [Example 57, 1-(4-(3-((4-(trifluoromethyl)pyridin-2-yl)oxy)benzyl)piper-azine-1-carbonyl)-1H-pyrazole-3-carboxylic acid]: the inhibition at 5 mg/kg in assay [1] and in assay [4] was 0 to 25% in each case. Besides, the inhibition at 1 µM in assay [2] was 50 to 75%; in assay [3] it was more than 75%; in assay [5] it was 50 to 75%; in assay [6], more than 75%. The compound also had an IC50 in assay [5] of 100 to 1000 nM.

In the case of `O=C(O)c1ccn(C(=O)N2CCC(Oc3ccc(Cl)cc3N3CCCC3)CC2)n1` [Example 11, 1-(4-(4-Chloro-2-(pyrrolidin-1-yl)phenoxy)piperidine-1-carbonyl)-1H-pyrazole-3-carboxylic Acid], the inhibition at 5 mg/kg in assay [1] and in assay [4] was 0 to 25% each time. Also, the inhibition at 1 µM in assay [2] was 0 to 25%; in assay [3], more than 75%; in assay [5], 0 to 25%; in assay [6], more than 75%.

Consider `O=C(O)c1nn(C(=O)N2CCN(Cc3cccc(Oc4ccc(Cl)cc4)c3)CC2)cc1Cl` [Example 132, 4-chloro-1-(4-(3-(4-chlorophenoxy)benzyl)piperazine-1-carbonyl)-1H-pyrazole-3-carboxylic acid], for which the inhibition at 5 mg/kg in assay [1] and in assay [4] was 0 to 25% throughout. Besides, the inhibition at 1 µM in assay [2], in assay [3], in assay [5] and in assay [6] was more than 75% each time.

Consider `CC(C)(O)C1CCN(c2cc(C(F)(F)F)ccc2CN2CCN(C(=O)n3ccc(C(=O)O)n3)CC2)CC1` [Example 109, 1-(4-(2-(4-(2-hydroxypropan-2-yl)piperidin-1-yl)-4-(trifluoromethyl)benzyl)piperazine-1-carbonyl)-1H-pyrazole-3-carboxylic acid], for which the inhibition at 5 mg/kg in assay [1] and in assay [4] was 0 to 25% throughout. For the same compound, the inhibition at 1 µM is 0 to 25% in assay [2], more than 75% in assay [3], 0 to 25% in assay [5] and more than 75% in assay [6].

In the case of `O=C(O)c1ccn(C(=O)N2CCN(Cc3cccc(Cl)c3N3CC4COCC4C3)CC2)n1` (centres unmarked) [Example 211, 1-(4-(3-chloro-2-(tetrahydro-1H-furo[3,4-c]pyrrol-5(3H)-yl)benzyl)piperazine-1-carbonyl)-1H-pyrazole-3-carboxylic acid], the inhibition at 5 mg/kg in assay [1] and in assay [4] was 0 to 25% each time. Besides, the inhibition at 1 µM in assay [2] was 0 to 25%; in assay [3] it was more than 75%; in assay [5], 0 to 25%; in assay [6] it was more than 75%.

As for `O=C(O)c1ccn(C(=O)N2CCN(Cc3ccc(C(F)(F)F)cc3N3CC[C@@H](F)C3)CC2)n1` [Example 101, (R)-1-(4-(2-(3-fluoropyrrolidin-1-yl)-4-(trifluoromethyl)benzyl)piperazine-1-carbonyl)-1H-pyrazole-3-carboxylic acid], the inhibition at 5 mg/kg in assay [1] and in assay [4] was 0 to 25% each time. For the same compound, the inhibition at 1 µM in assay [2] is 0 to 25%; in assay [3], more than 75%; in assay [5], 0 to 25%; in assay [6], more than 75%.

`O=C(O)c1ccn(C(=O)N2CCN(Cc3cccc(C(F)(F)F)c3N3CCCC3)CC2)n1` [Example 90, 1-(4-(2-(pyrrolidin-1-yl)-3-(trifluoromethyl)benzyl)piperazine-1-carbonyl)-1H-pyrazole-3-carboxylic acid]: the inhibition at 5 mg/kg in assay [1] and in assay [4] was 0 to 25% each time. The inhibition at 1 µM was 0 to 25% in assay [2], more than 75% in assay [3], 0 to 25% in assay [5] and more than 75% in assay [6].

With `O=C(O)c1ccn(C(=O)N2CC3CN(Cc4cccc(Oc5ccc(Cl)cc5)c4)CC3C2)n1` (centres unmarked) [Example 116, 1-(5-(3-(4-chlorophenoxy)benzyl)octahydro-pyrrolo[3,4-c]pyrrole-2-carbonyl)-1H-pyrazole-3-carboxylic acid], the inhibition at 5 mg/kg in assay [1] and in assay [4] was 0 to 25% in each case. Besides, the inhibition at 1 µM was 0 to 25% in assay [2], more than 75% in assay [3], more than 75% in assay [5] and more than 75% in assay [6]. Further, the 50% inhibitory concentration (IC50) in assay [5] and in assay [6] was 100 to 1000 nM throughout.

With `O=C(O)c1ccn(C(=O)N2CCN(Cc3ccc(C(F)(F)F)c(-c4nccs4)c3)CC2)n1` [Example 8, 1-(4-(3-(Thiazol-2-yl)-4-(trifluoromethyl)benzyl)piperazine-1-carbonyl)-1H-pyrazole-3-carboxylic Acid], the inhibition at 5 mg/kg in assay [1] and in assay [4] was 0 to 25% each time. Moreover, the inhibition at 1 µM in assay [2] is 0 to 25%; in assay [3], more than 75%; in assay [5] it was 0 to 25%; in assay [6], more than 75%.

In the case of `O=C(O)c1nn(C(=O)N2CC3CN(Cc4ccc(N5CCCC5)cc4C(F)(F)F)CC3C2)cc1Cl` (centres unmarked) [Example 140, 4-chloro-1-(5-(4-(pyrrolidin-1-yl)-2-(trifluoromethyl)benzyl)octahydro-pyrrolo[3,4-c]pyrrole-2-carbonyl)-1H-pyrazole-3-carboxylic acid], the inhibition at 5 mg/kg in assay [1] and in assay [4] was 0 to 25% each time. Besides, the inhibition at 1 µM in assay [2] was 50 to 75%; in assay [3], more than 75%; in assay [5], 50 to 75%; in assay [6], more than 75%. The same compound registered an IC50 in assay [5] of 100 to 1000 nM.
